Laboratory results: US20220265629A1, “TREATMENT OF SYSTOLIC DYSFUNCTION AND HEART FAILURE WITH REDUCED EJECTION FRACTION WITH THE COMPOUND (R)-4-(1-((3-(DIFLUOROMETHYL)-1-METHYL-1H-PYRAZOL-4-YL)SULFONYL)-1-FLUOROETHYL)-N-(ISOXAZOL-3-YL)PIPERIDINE-1-CARBOXAMIDE” (MyoKardia, Inc., priority 2019, published 2022)
Like-named read-outs stand apart in the source and are kept apart here.

Assay: Single ascending oral dose study in healthy volunteers: plasma pharmacokinetics
Format: in vivo, human
Conditions: plasma, oral; for concentration at 6 h / concentration at 12 h / concentration at 24 h / concentration at 48 h / concentration at 72 h / AUC(0-t) / AUC(0-inf) / Cmax / half-life / MRT / Tmax / Vd/F: human; for concentration at 12 h: 12 Hours Postdose; for concentration at 24 h: 24 Hours Postdose; for concentration at 48 h: 48 Hours Postdose; for concentration at 72 h: 72 Hours Postdose
Description: This example describes the first-in-human study of Compound I. Based on its mechanism of action, Compound I may offer a targeted therapy for patients with DCM caused by genetic or nongenetic mechanisms. The study was a randomized, double-blind, placebo-controlled, sequential group, single-ascending (oral) close study in healthy subjects aged 18-55 years. Eight dosing cohorts, each comprising eight healthy subjects, were enrolled. Within each cohort, subjects were randomized 6:2 to Compound I:placebo.
Subjects were resident at the clinical site for up to 5 days and 4 nights, from Day −1 (the day before dosing) to Day 4, and received a single dose of Compound I or placebo on Day 1. ECG telemetry was initiated 1 hour preclose and continued through 48 hours postclose (Day 3). Any subject with a preclose resting HR≥80 beats per minute was considered ineligible and not treated. […] Subjects returned for a safety follow-up visit 7 days (±1 day) after dosing.
All randomized study subjects received either Compound I or matching placebo as a single oral dose after a fasting period of at least 6 hours. Compound I drug substance is a crystalline, free-base, synthetic molecule with a molecular weight of 435.4 g/mol.
Compound I was provided as a powder for oral suspension. Placebo was provided as calcium carbonate powder. Both treatments were closed orally as a suspension. The suspension was made using Ora-Plus® suspending vehicle (Perrigo) and a cherry syrup flavoring vehicle (Humco), mixed 50% to 50%. The suspension was followed by approximately 100 mL water. The suspension was made up within 14 days from the time in which it was closed which was consistent with the stability data on the suspension. The suspension was made up so the volume administered to the subjects who received Compound I was the same at 20 mL.
Each subject received a close according to the cohort in which they were enrolled. Cohorts were enrolled sequentially, with each cohort receiving an escalated dose of Compound I. The closes administered were 3 mg, 10 mg, 25 mg, 50 mg, 100 mg, 175 mg, 350 mg, and 525 mg, respectively.
The concentrations of Compound I in human plasma and urine were quantitated by high performance liquid chromatography with tandem mass spectrometric detection (LC MS/MS) (Biological sample analysis study report Alturas AD17-726). Plasma samples were extracted by protein precipitation with acetonitrile containing internal standard MYK-5654. The calibration curves were linear over concentration range of 0.500 to 1000 ng/mL with a lower limit of quantification (LLOQ) of 0.500 ng/mL.
The PK Population included all subjects who received Compound I. Blood samples were collected for PK assessments. The actual timing of the samples may have been modified and/or up to an additional 2 samples may have been requested by the SRC after review of the data from previous cohorts. It was important that PK sampling occurred as closely as possible to the scheduled time (±10%). Both blood and urine samples were used for PK assessments.
In addition, for subjects who received placebo, a single plasma sample near the predicted tmax of Compound I was evaluated to confirm the lack of circulating Compound I. Plasma concentration data for Compound I was summarized using descriptive statistics, including mean, standard deviation (SD), median, minimum, and maximum values, and percent coefficient of variation. Other PK parameters included (but were not limited to) Cmax, tmax, AUC, t1/2, and MRT. Additionally, the apparent terminal-phase terminal half-life was calculated. The close proportionality of AUC and Cmax was explored.

[1] = 350 mg, 350 mg, read-out: Plasma concentration, Geometric Mean
[2] = 350 mg, 350 mg, read-out: Plasma concentration, Mean
[3] = 350 mg, 350 mg, read-out: Plasma concentration, Median
[4] = 525 mg, 525 mg, read-out: Plasma concentration, Geometric Mean
[5] = 525 mg, 525 mg, read-out: Plasma concentration, Mean
[6] = 525 mg, 525 mg, read-out: Plasma concentration, Median
[7] = 350 mg + 525 mg, read-out: Plasma concentration, Geometric Mean
[8] = 350 mg + 525 mg, read-out: Plasma concentration, Mean
[9] = 350 mg + 525 mg, read-out: Plasma concentration, Median

SMILES: Cn1cc(S(=O)(=O)[C@@](C)(F)C2CCN(C(=O)Nc3ccon3)CC2)c(C(F)F)n1 [Compound I, (R)-4-(1-((3-(difluoromethyl)-1-methyl-1H-pyrazol-4-yl)sulfonyl)-1-fluoroethyl)-N-(isoxazol-3-yl)piperidine-1-carboxamide]
- concentration at 6 h (350 mg, 6 Hours Postdose, 350 mg, read-out: Plasma concentration, Mean): 2660 ng/mL
- concentration at 6 h (350 mg, 6 Hours Postdose, 350 mg, read-out: Plasma concentration, Median): 2550 ng/mL
- concentration at 12 h [1]: 2090 ng/mL
- concentration at 12 h [2]: 2140 ng/mL
- concentration at 12 h [3]: 2120 ng/mL
- concentration at 24 h [1]: 1280 ng/mL
- concentration at 24 h [2]: 1320 ng/mL
- concentration at 24 h [3]: 1340 ng/mL
- concentration at 48 h [1]: 329 ng/mL
- concentration at 48 h [2]: 373 ng/mL
- concentration at 48 h [3]: 350 ng/mL
- concentration at 72 h [1]: 101 ng/mL
- concentration at 72 h [2]: 128 ng/mL
- concentration at 72 h [3]: 111 ng/mL
- AUC(0-t) (350 mg, read-out: AUC0-24, Geometric Mean): 44700 ng·h/mL
- AUC(0-t) (350 mg, read-out: AUC0-24, Mean): 45600 ng·h/mL
- AUC(0-t) (350 mg, read-out: AUC0-24, Median): 45000 ng·h/mL
- AUC(0-t) (350 mg, read-out: AUC0-48, Geometric Mean): 64200 ng·h/mL
- AUC(0-t) (350 mg, read-out: AUC0-48, Mean): 65900 ng·h/mL
- AUC(0-t) (350 mg, read-out: AUC0-48, Median): 66400 ng·h/mL
- AUC(0-t) (350 mg, read-out: AUC0-last, Geometric Mean): 73200 ng·h/mL
- AUC(0-t) (350 mg, read-out: AUC0-last, Mean): 76300 ng·h/mL
- AUC(0-t) (350 mg, read-out: AUC0-last, Median): 76200 ng·h/mL
- AUC(0-inf) (350 mg, read-out: AUC0-∞, Geometric Mean): 73600 ng·h/mL
- AUC(0-inf) (350 mg, read-out: AUC0-∞, Mean): 76700 ng·h/mL
- AUC(0-inf) (350 mg, read-out: AUC0-∞, Median): 76200 ng·h/mL
- Cmax (350 mg, read-out: Cmax, Geometric Mean): 2790 ng/mL
- Cmax (350 mg, read-out: Cmax, Mean): 2820 ng/mL
- Cmax (350 mg, read-out: Cmax, Median): 2900 ng/mL
- half-life (350 mg, read-out: Half-Life Lambda Z, Geometric Mean (converted)): 14.3 h
- half-life (350 mg, read-out: Half-Life Lambda Z, Mean (converted)): 14.7 h
- half-life (350 mg, read-out: Half-Life Lambda Z, Median (converted)): 14.5 h
- MRT (350 mg, read-out: Mean Residence Time, Geometric Mean): 22.4 h
- MRT (350 mg, read-out: Mean Residence Time, Mean): 22.8 h
- MRT (350 mg, read-out: Mean Residence Time, Median): 22.7 h
- Tmax (350 mg, read-out: Tmax, Geometric Mean): 4.84 h
- Tmax (350 mg, read-out: Tmax, Mean): 4.95 h
- Tmax (350 mg, read-out: Tmax, Median): 5 h
- Vd/F (350 mg, read-out: Vz/F, Geometric Mean): 98.3 L
- Vd/F (350 mg, read-out: Vz/F, Mean): 98.8 L
- Vd/F (350 mg, read-out: Vz/F, Median): 98.4 L
- concentration at 6 h (525 mg, 6 Hours Postdose, 525 mg, read-out: Plasma concentration, Geometric Mean): 2160 ng/mL
- concentration at 6 h (525 mg, 6 Hours Postdose, 525 mg, read-out: Plasma concentration, Mean): 2220 ng/mL
- concentration at 6 h (525 mg, 6 Hours Postdose, 525 mg, read-out: Plasma concentration, Median): 2220 ng/mL
- concentration at 12 h [4]: 1780 ng/mL
- concentration at 12 h [5]: 1840 ng/mL
- concentration at 12 h [6]: 1780 ng/mL
- concentration at 24 h [4]: 1190 ng/mL
- concentration at 24 h [5]: 1230 ng/mL
- concentration at 24 h [6]: 1180 ng/mL
- concentration at 48 h [4]: 420 ng/mL
- concentration at 48 h [5]: 465 ng/mL
- concentration at 48 h [6]: 426 ng/mL
- concentration at 72 h [4]: 116 ng/mL
- concentration at 72 h [5]: 147 ng/mL
- concentration at 72 h [6]: 122 ng/mL
- AUC(0-t) (525 mg, read-out: AUC0-24, Geometric Mean): 37500 ng·h/mL
- AUC(0-t) (525 mg, read-out: AUC0-24, Mean): 38500 ng·h/mL
- AUC(0-t) (525 mg, read-out: AUC0-24, Median): 38200 ng·h/mL
- AUC(0-t) (525 mg, read-out: AUC0-48, Geometric Mean): 57000 ng·h/mL
- AUC(0-t) (525 mg, read-out: AUC0-48, Mean): 58900 ng·h/mL
- AUC(0-t) (525 mg, read-out: AUC0-48, Median): 57400 ng·h/mL
- AUC(0-t) (525 mg, read-out: AUC0-last, Geometric Mean): 68100 ng·h/mL
- AUC(0-t) (525 mg, read-out: AUC0-last, Mean): 71700 ng·h/mL
- AUC(0-t) (525 mg, read-out: AUC0-last, Median): 68600 ng·h/mL
- AUC(0-inf) (525 mg, read-out: AUC0-∞, Geometric Mean): 68500 ng·h/mL
- AUC(0-inf) (525 mg, read-out: AUC0-∞, Mean): 72100 ng·h/mL
- AUC(0-inf) (525 mg, read-out: AUC0-∞, Median): 68800 ng·h/mL
- Cmax (525 mg, read-out: Cmax, Geometric Mean): 2290 ng/mL
- Cmax (525 mg, read-out: Cmax, Mean): 2350 ng/mL
- Cmax (525 mg, read-out: Cmax, Median): 2240 ng/mL
- half-life (525 mg, read-out: Half-Life Lambda Z, Geometric Mean (converted)): 14.7 h
- half-life (525 mg, read-out: Half-Life Lambda Z, Mean (converted)): 15.1 h
- half-life (525 mg, read-out: Half-Life Lambda Z, Median (converted)): 13.8 h
- MRT (525 mg, read-out: Mean Residence Time, Geometric Mean): 25.4 h
- MRT (525 mg, read-out: Mean Residence Time, Mean): 25.8 h
- MRT (525 mg, read-out: Mean Residence Time, Median): 25 h
- Tmax (525 mg, read-out: Tmax, Geometric Mean): 4.94 h
- Tmax (525 mg, read-out: Tmax, Mean): 4.97 h
- Tmax (525 mg, read-out: Tmax, Median): 5 h
- Vd/F (525 mg, read-out: Vz/F, Geometric Mean): 162 L
- Vd/F (525 mg, read-out: Vz/F, Mean): 166 L
- Vd/F (525 mg, read-out: Vz/F, Median): 171 L
- concentration at 6 h (6 Hours Postdose, 350 mg + 525 mg, read-out: Plasma concentration, Geometric Mean): 2380 ng/mL
- concentration at 6 h (6 Hours Postdose, 350 mg + 525 mg, read-out: Plasma concentration, Mean): 2440 ng/mL
- concentration at 6 h (6 Hours Postdose, 350 mg + 525 mg, read-out: Plasma concentration, Median): 2350 ng/mL
- concentration at 12 h [7]: 1930 ng/mL
- concentration at 12 h [8]: 1990 ng/mL
- concentration at 12 h [9]: 1860 ng/mL
- concentration at 24 h [7]: 1230 ng/mL
- concentration at 24 h [8]: 1280 ng/mL
- concentration at 24 h [9]: 1210 ng/mL
- concentration at 48 h [7]: 372 ng/mL
- concentration at 48 h [8]: 419 ng/mL
- concentration at 48 h [9]: 415 ng/mL
- concentration at 72 h [7]: 108 ng/mL
- concentration at 72 h [8]: 137 ng/mL
- concentration at 72 h [9]: 122 ng/mL
- concentration at 6 h (6 hours post-dose, bin 0-1000 ng/mL (n = 29), read-out: Plasma Concentration, Mean): 334 ng/mL
- concentration at 6 h (6 hours post-dose, bin 0-1000 ng/mL (n = 29), read-out: Plasma Concentration, Median): 286 ng/mL
- concentration at 6 h (6 hours post-dose, bin 1001-2000 ng/mL (n = 9), read-out: Plasma Concentration, Mean): 1360 ng/mL
- concentration at 6 h (6 hours post-dose, bin 1001-2000 ng/mL (n = 9), read-out: Plasma Concentration, Median): 1270 ng/mL
- concentration at 6 h (6 hours post-dose, bin >2000 ng/mL (n = 10), read-out: Plasma Concentration, Mean): 2590 ng/mL
- concentration at 6 h (6 hours post-dose, bin >2000 ng/mL (n = 10), read-out: Plasma Concentration, Median): 2420 ng/mL
- half-life (across the dose groups, read-out: terminal t1/2): 11 to 16 h
- half-life (combined 350 and 525 mg group, read-out: t1/2, range): 11 to 22 h
- Tmax (combined 350 and 525 mg group, read-out: tmax, range): 3 to 6 h
- Vd/F (doses ranging from 3 mg to 525 mg, read-out: volume of distribution (Vz/F)): 58 to 166 L
- Vd/F (doses up to 175 mg, read-out: mean apparent volume of distribution (Vz/F)): ~78 L
- Tmax (healthy volunteers, read-out: Tmax): 4 to 6 h
- half-life (healthy volunteers, read-out: terminal t1/2 (half-life) (converted)): ~15 h
- Vd (1-compartmental model analysis of in vivo data in human): 0.965 L/kg
- clearance (1-compartmental model analysis of in vivo data in human, read-out: CL (Human)): 0.949 mL/min/kg
